Measured values from publication PMC9274761, “Effects of Structurally Different HDAC Inhibitors against Trypanosoma cruzi, Leishmania, and Schistosoma mansoni” (ACS Infectious Diseases, 2022).

Columns and labels:
in vitro = conditions: mouse, noninfected L929 fibroblast cells
HDAC4 = HDAC4 (Homo sapiens, UniProt P56524); assay: HDAC4 protease-coupled fluorescence (AMC) inhibition assay; assay type: biochemical; conditions: hr enzyme, class IIa substrate Boc-Lys(trifluoroacetyl)-AMC; read-out: IC50 against HDAC4
Text: (§1) The new hydroxamates 2 and 6 were screened and profiled via a protease-coupled assay in which the quantification of HDAC enzyme activity is based on the formation of a free fluorescent group, the 7-amino-4-methyl coumarin (AMC).[42] […] After deacetylation by HDACs, the de(trifluoro)acetylated AMC–peptides were sensitive toward lysine peptidase and free fluorogenic AMC was generated and quantified.[42]
(§2) To gain insights into its inhibition profile for human HDACs, we tested 3 against hrHDACs 1–6 and 8 following the above procedure (Table 1).
(§3) Individual IC50 values for each HDAC isozyme were measured with the homogeneous fluorescence release HDAC assay.[42]

[1] = tested on: L. amazonensis amastigotes in primary mouse macrophages; conditions: 10 μM, 3 days, toxic = toxic for macrophages
HDAC6 = target: T1, HDAC6 (Homo sapiens, UniProt Q9UBN7); assay: HDAC6 protease-coupled fluorescence (AMC) inhibition assay; assay type: biochemical; conditions: hr enzyme, 10-dose, 3-fold dilution from 50 μM (3: from 300 μM); read-out: IC50 against HDAC6
T1 sequence (Q9UBN7 1-1215): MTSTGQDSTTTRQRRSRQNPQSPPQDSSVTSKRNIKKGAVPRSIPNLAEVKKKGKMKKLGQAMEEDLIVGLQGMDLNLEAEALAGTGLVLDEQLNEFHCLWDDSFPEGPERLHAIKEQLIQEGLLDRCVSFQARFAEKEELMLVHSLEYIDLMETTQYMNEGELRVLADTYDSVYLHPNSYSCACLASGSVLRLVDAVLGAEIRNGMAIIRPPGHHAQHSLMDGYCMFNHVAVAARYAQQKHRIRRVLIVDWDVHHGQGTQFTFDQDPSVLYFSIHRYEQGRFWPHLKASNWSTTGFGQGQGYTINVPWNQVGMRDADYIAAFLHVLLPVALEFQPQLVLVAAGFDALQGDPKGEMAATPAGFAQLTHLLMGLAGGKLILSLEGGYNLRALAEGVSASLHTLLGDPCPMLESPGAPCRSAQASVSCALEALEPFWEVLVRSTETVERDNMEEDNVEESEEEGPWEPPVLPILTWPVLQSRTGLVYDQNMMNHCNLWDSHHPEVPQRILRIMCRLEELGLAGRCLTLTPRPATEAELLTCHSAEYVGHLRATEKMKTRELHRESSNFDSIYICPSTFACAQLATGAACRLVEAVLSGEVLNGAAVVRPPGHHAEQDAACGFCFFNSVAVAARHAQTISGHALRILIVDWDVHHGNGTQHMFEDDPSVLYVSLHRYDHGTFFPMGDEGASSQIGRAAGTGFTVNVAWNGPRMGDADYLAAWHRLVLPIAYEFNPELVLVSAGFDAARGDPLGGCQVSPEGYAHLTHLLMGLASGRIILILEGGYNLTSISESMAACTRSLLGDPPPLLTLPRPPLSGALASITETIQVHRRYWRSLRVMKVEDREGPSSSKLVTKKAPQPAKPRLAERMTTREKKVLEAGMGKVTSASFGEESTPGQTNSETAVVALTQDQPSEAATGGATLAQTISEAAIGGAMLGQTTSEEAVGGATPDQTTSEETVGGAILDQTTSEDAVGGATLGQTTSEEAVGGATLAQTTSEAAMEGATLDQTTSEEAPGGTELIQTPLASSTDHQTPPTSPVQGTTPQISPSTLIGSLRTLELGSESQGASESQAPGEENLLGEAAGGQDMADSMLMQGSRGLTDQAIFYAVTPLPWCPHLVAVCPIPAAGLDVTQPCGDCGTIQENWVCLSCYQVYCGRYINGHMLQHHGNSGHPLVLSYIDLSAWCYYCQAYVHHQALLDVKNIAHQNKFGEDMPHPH
Text: as §1, §2, §3

HDAC5 = HDAC5 (Homo sapiens, UniProt Q9UQL6); assay: HDAC5 protease-coupled fluorescence (AMC) inhibition assay; assay type: biochemical; conditions: for IC50: hr enzyme, class IIa substrate Boc-Lys(trifluoroacetyl)-AMC, read-out: IC50 against HDAC5
Text: as §1, §2, §3

Chain of HDAC5 (Q9UQL6 whole entry): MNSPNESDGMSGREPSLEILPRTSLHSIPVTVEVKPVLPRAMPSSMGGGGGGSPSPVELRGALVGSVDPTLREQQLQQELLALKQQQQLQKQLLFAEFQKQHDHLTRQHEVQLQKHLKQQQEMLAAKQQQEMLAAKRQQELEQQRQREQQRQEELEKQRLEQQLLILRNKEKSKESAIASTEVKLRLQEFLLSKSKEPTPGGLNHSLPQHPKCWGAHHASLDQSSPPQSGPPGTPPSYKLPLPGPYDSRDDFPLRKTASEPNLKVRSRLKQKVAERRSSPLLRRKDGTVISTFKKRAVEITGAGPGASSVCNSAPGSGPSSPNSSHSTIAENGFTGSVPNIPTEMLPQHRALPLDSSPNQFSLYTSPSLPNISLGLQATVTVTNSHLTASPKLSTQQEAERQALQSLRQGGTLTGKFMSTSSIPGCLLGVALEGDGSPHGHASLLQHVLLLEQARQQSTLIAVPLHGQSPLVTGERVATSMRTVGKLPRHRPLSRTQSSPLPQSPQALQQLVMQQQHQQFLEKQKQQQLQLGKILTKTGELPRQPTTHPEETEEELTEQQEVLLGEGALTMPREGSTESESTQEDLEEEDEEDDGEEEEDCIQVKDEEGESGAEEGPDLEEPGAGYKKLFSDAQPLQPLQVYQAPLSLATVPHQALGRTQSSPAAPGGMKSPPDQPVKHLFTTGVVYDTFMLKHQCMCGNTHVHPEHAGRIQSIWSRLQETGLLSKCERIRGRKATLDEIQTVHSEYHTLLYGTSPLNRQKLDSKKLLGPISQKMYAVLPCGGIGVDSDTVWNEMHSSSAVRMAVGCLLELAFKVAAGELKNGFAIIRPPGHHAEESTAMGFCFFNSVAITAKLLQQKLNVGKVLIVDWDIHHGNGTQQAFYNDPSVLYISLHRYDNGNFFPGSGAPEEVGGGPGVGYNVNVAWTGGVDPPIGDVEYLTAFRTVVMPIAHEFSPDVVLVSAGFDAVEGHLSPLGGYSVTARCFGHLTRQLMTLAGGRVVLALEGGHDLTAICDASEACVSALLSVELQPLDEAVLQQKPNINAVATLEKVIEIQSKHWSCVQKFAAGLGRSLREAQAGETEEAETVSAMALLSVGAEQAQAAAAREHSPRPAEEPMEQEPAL
Chain of HDAC4 (P56524 whole entry): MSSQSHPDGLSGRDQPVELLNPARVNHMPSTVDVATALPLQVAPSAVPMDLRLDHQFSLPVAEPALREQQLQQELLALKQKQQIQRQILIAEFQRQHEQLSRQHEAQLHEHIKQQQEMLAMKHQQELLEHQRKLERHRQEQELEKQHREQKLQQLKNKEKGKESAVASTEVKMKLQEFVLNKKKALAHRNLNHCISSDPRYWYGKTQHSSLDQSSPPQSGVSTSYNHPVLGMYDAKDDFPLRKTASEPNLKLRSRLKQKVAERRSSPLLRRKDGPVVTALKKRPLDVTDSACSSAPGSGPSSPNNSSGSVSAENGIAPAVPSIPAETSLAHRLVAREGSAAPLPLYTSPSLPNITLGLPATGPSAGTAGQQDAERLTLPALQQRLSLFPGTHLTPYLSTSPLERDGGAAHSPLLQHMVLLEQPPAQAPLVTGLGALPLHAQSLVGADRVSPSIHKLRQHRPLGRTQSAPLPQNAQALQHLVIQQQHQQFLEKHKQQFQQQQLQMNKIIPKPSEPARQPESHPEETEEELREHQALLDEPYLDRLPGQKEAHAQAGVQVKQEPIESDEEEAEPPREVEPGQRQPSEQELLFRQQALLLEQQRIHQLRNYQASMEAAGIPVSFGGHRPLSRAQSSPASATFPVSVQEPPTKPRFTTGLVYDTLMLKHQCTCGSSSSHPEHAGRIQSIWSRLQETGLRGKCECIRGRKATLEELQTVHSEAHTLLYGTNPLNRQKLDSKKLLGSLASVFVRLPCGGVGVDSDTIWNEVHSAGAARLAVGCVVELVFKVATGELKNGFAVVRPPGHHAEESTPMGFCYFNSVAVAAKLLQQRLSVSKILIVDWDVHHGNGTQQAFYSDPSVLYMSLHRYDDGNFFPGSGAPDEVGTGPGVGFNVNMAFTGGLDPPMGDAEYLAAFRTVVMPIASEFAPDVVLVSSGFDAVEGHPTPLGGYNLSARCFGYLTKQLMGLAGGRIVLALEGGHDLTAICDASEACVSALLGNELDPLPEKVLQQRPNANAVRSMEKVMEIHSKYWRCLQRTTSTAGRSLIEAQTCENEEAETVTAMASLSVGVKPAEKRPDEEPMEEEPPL

Compound | CC50 at 96 h (in vitro) | IC50 (HDAC4) | HCA outcome against intramacrophagic L. amazonensis amastigotes [1] | IC50 (HDAC6) | IC50 (HDAC5) | fold more potent against HDAC5 than against HDAC4 (HDAC5; ratio of IC50 HDAC4 / HDAC5)
CN(C)Cc1ccc(S(=O)(=O)n2ccc3cc(/C=C/C(=O)NO)ccc32)cc1 [Compound 6, 3-(1-((4-((Dimethylamino)methyl)phenyl)sulfonyl)-1H-indol-5-yl)-N-hydroxy Acrylamide] | 5 µM | 16.7 µM | toxic | 0.018 µM | 3.43 µM | 5 fold
O=C(/C=C/c1ccc(CSc2nc(Cl)cc(-c3ccccc3)n2)cc1)NO [Compound 2, 3-(4-(((4-Chloro-6-phenylpyrimidin-2-yl)thio)methyl)phenyl)-N-hydroxy Acrylamide] | 20 µM | 17.3 µM | toxic | 0.12 µM | 22.9 µM | –
